From patent publication US20080096939A1, “Process For Preparation Of Pramipexole By Chiral Chromatography” (priority 2004, published 2008)

What was measured:
[1] = acetonitrile:methanol (81:19)
Description: Racemic pramipexole was subjected to preparative chromatography using Chiralpak® AD as the stationary phase and acetonitrile:methanol (81:19) as the mobile phase.

dopamine D-2 = dopamine D-2 (Homo sapiens, UniProt P14416); settings: compared with the R(+) enantiomer; cited from earlier work
Chain of dopamine D-2 (P14416 whole entry): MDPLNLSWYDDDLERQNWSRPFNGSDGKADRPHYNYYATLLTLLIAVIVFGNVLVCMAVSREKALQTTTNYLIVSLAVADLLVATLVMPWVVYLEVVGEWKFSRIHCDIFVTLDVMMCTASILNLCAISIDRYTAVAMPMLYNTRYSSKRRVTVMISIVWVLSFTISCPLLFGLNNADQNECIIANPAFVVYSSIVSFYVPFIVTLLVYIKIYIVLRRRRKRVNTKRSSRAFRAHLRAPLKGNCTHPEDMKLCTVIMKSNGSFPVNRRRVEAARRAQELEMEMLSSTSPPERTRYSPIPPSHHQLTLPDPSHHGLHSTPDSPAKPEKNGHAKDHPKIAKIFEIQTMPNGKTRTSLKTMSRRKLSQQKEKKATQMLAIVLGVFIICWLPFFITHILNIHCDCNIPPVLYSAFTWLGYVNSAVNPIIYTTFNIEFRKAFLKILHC

SMILES	solubility in the mobile phase [1] [mg/mL]	dopaminergic activity of the S(−) enantiomer relative to the corresponding R(+) enantiomer (dopamine D-2)
CCCNC1CCc2nc(N)sc2C1 (racemic) [Racemic pramipexole, R,S(±)-2-amino-6-propylamino-4,5,6,7-tetrahydrobenzothiazole]	> 40	
CCCN[C@H]1CCc2nc(N)sc2C1 [Pramipexole, S(−)-2-amino-6-propylamino-4,5,6,7-tetrahydrobenzothiazole]		twice as high
